Test results taken from ChEMBL document CHEMBL1133237, “Enhanced binding of aminoglycoside dimers to a "dimerized" A-site 16S rRNA construct” (Bioorg Med Chem Lett, 2000).

How the values were obtained:
Nucleic Acid [1] = test: Dissociation constant towards 16S rRNA construct A; type: nucleic-acid assay
Nucleic Acid [2] = test: Dissociation constant towards 16S rRNA construct B; type: nucleic-acid assay

SMILES | Kd (Nucleic Acid [1]) [nM] | Kd (Nucleic Acid [2]) [nM]
NCC1O[C@H](O[C@H]2[C@@H](O)[C@H](O[C@H]3[C@H](O)[C@@H](N)C[C@@H](N)[C@@H]3O[C@H]3O[C@H](CN)[C@@H](O)[C@H](O)[C@H]3N)O[C@@H]2CSCCOCCSSCCOCCSC[C@H]2O[C@@H](O[C@H]3[C@H](O)[C@@H](N)C[C@@H](N)[C@@H]3O[C@H]3O[C@H](CN)[C@@H](O)[C@H](O)[C@H]3N)[C@H](O)[C@@H]2O[C@@H]2OC(CN)[C@H](O)[C@@H](O)[C@@H]2N)[C@H](N)[C@@H](O)[C@@H]1O (stereo not given in full) | 320 | 20
NC[C@@H]1O[C@H](O[C@H]2[C@@H](O)[C@H](O[C@@H]3[C@@H](O)[C@H](N)C[C@H](N)[C@H]3O[C@H]3O[C@H](CN)[C@@H](O)[C@H](O)[C@H]3N)O[C@@H]2CO)[C@H](N)[C@@H](O)[C@@H]1O [FRAMYCETIN] | 440 | 380
NC[C@H]1O[C@H](O[C@H]2[C@H](O)[C@@H](O[C@H]3O[C@H](CSCCOCCSSCCOCCSC[C@H]4O[C@H](O[C@@H]5[C@@H](O)[C@H](O[C@H]6O[C@H](CN)[C@@H](O)C[C@H]6N)[C@@H](N)C[C@H]5N)[C@H](O)[C@@H](N)[C@@H]4O)[C@@H](O)[C@H](N)[C@H]3O)[C@H](N)C[C@@H]2N)[C@H](N)C[C@@H]1O [Tobramycin-Tobramycin] | 1780 | 1810

Further compounds by falling Kd (Nucleic Acid [1]), results first:

Kd (Nucleic Acid [1]) [nM] | Kd (Nucleic Acid [2]) [nM] | SMILES
2110 | 1680 | NC[C@H]1O[C@H](O[C@H]2[C@H](O)[C@@H](O[C@H]3O[C@H](CO)[C@@H](O)[C@H](N)[C@H]3O)[C@H](N)C[C@@H]2N)[C@H](N)C[C@@H]1O [TOBRAMYCIN]
410 | 290 | NCC1O[C@H](O[C@H]2[C@@H](O)[C@H](O[C@H]3[C@H](O)[C@@H](N)C[C@@H](N)[C@@H]3O[C@H]3O[C@H](CN)[C@@H](O)[C@H](O)[C@H]3N)O[C@@H]2CSCCOCCSSCCOCCSC[C@H]2O[C@H](O[C@@H]3[C@@H](O)[C@H](O[C@H]4O[C@H](CN)[C@@H](O)C[C@H]4N)[C@@H](N)C[C@H]3N)[C@H](O)[C@@H](N)[C@@H]2O)[C@H](N)[C@@H](O)[C@@H]1O (stereo not given in full)
